PubChem BioAssay AID651642 (Sanford-Burnham Center for Chemical Genomics, 2012)

Key:
H9c2 = test: cardiomyocyte survival under oxidative or metabolic stress – cell-based, panel, H9c2 and HL-1, H2O2, 2-deoxyglucose, ATP luminescence, SAR follow-up (AID 651642)
HL-1 = test: as above
[1] = H9c2/HL-1 cardiomyocyte 2-deoxyglucose damage, mean of runs, with 2-deoxyglucose, mean IC50 across panel
[2] = H9c2/HL-1 cardiomyocyte 2-deoxyglucose damage, run 1, with 2-deoxyglucose
[3] = H9c2/HL-1 cardiomyocyte 2-deoxyglucose damage, run 2, with 2-deoxyglucose
[4] = H9c2/HL-1 cardiomyocyte 2-deoxyglucose damage, run 3, with 2-deoxyglucose
[5] = H9c2/HL-1 cardiomyocyte 2-deoxyglucose damage, run 4, with 2-deoxyglucose
[6] = H9c2/HL-1 cardiomyocyte H2O2 oxidative damage, run 1, with H2O2
[7] = H9c2/HL-1 cardiomyocyte H2O2 oxidative damage, run 2, with H2O2
[8] = H9c2/HL-1 cardiomyocyte H2O2 oxidative damage, run 3, with H2O2
[9] = H9c2/HL-1 cardiomyocyte H2O2 oxidative damage, run 4, with H2O2
[10] = H9c2/HL-1 cardiomyocyte H2O2 oxidative damage, mean of runs, with H2O2, mean IC50 across panel

COc1ccc2c(c1OC)C(=O)N1c3ccccc3C(=O)N(Cc3ccccn3)C21 (stereo not drawn)
IC50 (H9c2; [1]): > 79 µM | IC50 (H9c2; [2]): > 79 µM | IC50 (H9c2; [3]): > 79 µM | IC50 (H9c2; [4]): > 79 µM | IC50 (H9c2; [5]): > 79 µM | IC50 (H9c2; [6]): 7.56 µM | IC50 (H9c2; [7]): 10.3 µM | IC50 (H9c2; [8]): > 79 µM | IC50 (H9c2; [9]): > 79 µM | IC50 (HL-1; [1]): > 79 µM | IC50 (HL-1; [2]): > 79 µM | IC50 (HL-1; [3]): > 79 µM | IC50 (HL-1; [4]): > 79 µM | IC50 (HL-1; [5]): > 79 µM | IC50 (HL-1; [10]): > 79 µM | IC50 (HL-1; [6]): > 79 µM | IC50 (HL-1; [7]): > 79 µM | IC50 (HL-1; [8]): > 79 µM | IC50 (HL-1; [9]): > 79 µM

COc1ccc2c(c1OC)C(=O)N1c3ccccc3C(=O)N(Cc3ccccc3Cl)C21 (stereo not drawn)
IC50 (H9c2; [1]): 15.8 µM | IC50 (H9c2; [2]): 17 µM | IC50 (H9c2; [3]): 20.1 µM | IC50 (H9c2; [4]): 12 µM | IC50 (H9c2; [5]): 14.2 µM | IC50 (H9c2; [6]): 0.558 µM | IC50 (H9c2; [7]): 0.745 µM | IC50 (H9c2; [8]): > 79 µM | IC50 (H9c2; [9]): > 79 µM | IC50 (HL-1; [1]): 2.3 µM | IC50 (HL-1; [2]): 1.05 µM | IC50 (HL-1; [3]): 1.56 µM | IC50 (HL-1; [4]): 2.66 µM | IC50 (HL-1; [5]): 3.94 µM | IC50 (HL-1; [10]): > 79 µM | IC50 (HL-1; [6]): > 79 µM | IC50 (HL-1; [7]): > 79 µM | IC50 (HL-1; [8]): > 79 µM | IC50 (HL-1; [9]): > 79 µM

COc1cc(-c2cc(C(=O)Nc3cccc(C(=O)N(C)C)c3)c3ccccc3n2)cc(OC)c1OC
IC50 (H9c2; [1]): > 79 µM | IC50 (H9c2; [2]): > 79 µM | IC50 (H9c2; [3]): > 79 µM | IC50 (H9c2; [4]): > 79 µM | IC50 (H9c2; [5]): > 79 µM | IC50 (H9c2; [6]): > 79 µM | IC50 (H9c2; [7]): 3.17 µM | IC50 (H9c2; [8]): 3.3 µM | IC50 (H9c2; [9]): 3.78 µM | IC50 (HL-1; [1]): 16.5 µM | IC50 (HL-1; [2]): 6.9 µM | IC50 (HL-1; [3]): 7.56 µM | IC50 (HL-1; [4]): 24.5 µM | IC50 (HL-1; [5]): 26.9 µM | IC50 (HL-1; [10]): 9.38 µM | IC50 (HL-1; [6]): 7.37 µM | IC50 (HL-1; [7]): 12.8 µM | IC50 (HL-1; [8]): 7.61 µM | IC50 (HL-1; [9]): 9.78 µM

CCOC(=O)c1cccc(NC(=O)CNC(=O)c2cc(-c3cc(OC)c(OC)c(OC)c3)nc3c(Cl)cccc23)c1
IC50 (H9c2; [1]): > 79 µM | IC50 (H9c2; [2]): > 79 µM | IC50 (H9c2; [3]): > 79 µM | IC50 (H9c2; [4]): > 79 µM | IC50 (H9c2; [5]): > 79 µM | IC50 (H9c2; [6]): 5.52 µM | IC50 (H9c2; [7]): 8.8 µM | IC50 (H9c2; [8]): > 79 µM | IC50 (H9c2; [9]): 3.36 µM | IC50 (HL-1; [2]): 3.56 µM | IC50 (HL-1; [3]): 5.79 µM | IC50 (HL-1; [4]): > 79 µM | IC50 (HL-1; [5]): > 79 µM | IC50 (HL-1; [6]): > 79 µM | IC50 (HL-1; [7]): > 79 µM | IC50 (HL-1; [8]): 4.99 µM | IC50 (HL-1; [9]): 15.4 µM

COc1ccc2c(c1OC)C(=O)N1c3ccccc3C(=O)N(Cc3ccc(C)cc3)C21 (stereo not drawn)
IC50 (H9c2; [1]): > 79 µM | IC50 (H9c2; [2]): > 79 µM | IC50 (H9c2; [3]): > 79 µM | IC50 (H9c2; [4]): > 79 µM | IC50 (H9c2; [5]): > 79 µM | IC50 (H9c2; [6]): > 79 µM | IC50 (H9c2; [7]): 6.9 µM | IC50 (H9c2; [8]): > 79 µM | IC50 (H9c2; [9]): > 79 µM | IC50 (HL-1; [2]): 11.4 µM | IC50 (HL-1; [3]): 23.3 µM | IC50 (HL-1; [4]): > 79 µM | IC50 (HL-1; [5]): > 79 µM | IC50 (HL-1; [6]): > 79 µM | IC50 (HL-1; [7]): > 79 µM | IC50 (HL-1; [8]): > 79 µM | IC50 (HL-1; [9]): > 79 µM

COc1cc(-c2cc(C(=O)NCC(=O)Nc3ccc(C(C)=O)cc3)c3cc(C)ccc3n2)cc(OC)c1OC
IC50 (H9c2; [1]): 5.83 µM | IC50 (H9c2; [2]): 6.75 µM | IC50 (H9c2; [3]): 8.1 µM | IC50 (H9c2; [4]): 3.5 µM | IC50 (H9c2; [5]): 4.96 µM | IC50 (H9c2; [10]): 1.67 µM | IC50 (H9c2; [6]): 2.04 µM | IC50 (H9c2; [7]): 2.05 µM | IC50 (H9c2; [8]): 1.09 µM | IC50 (H9c2; [9]): 1.49 µM | IC50 (HL-1; [1]): 4.22 µM | IC50 (HL-1; [2]): 2.65 µM | IC50 (HL-1; [3]): 2.65 µM | IC50 (HL-1; [4]): 5.75 µM | IC50 (HL-1; [5]): 5.85 µM | IC50 (HL-1; [10]): 3.93 µM | IC50 (HL-1; [6]): 3.02 µM | IC50 (HL-1; [7]): 3.88 µM | IC50 (HL-1; [8]): 3.17 µM | IC50 (HL-1; [9]): 5.63 µM

COC(=O)CNC(=O)c1cccc(NC(=O)c2cc(-c3cc(OC)c(OC)c(OC)c3)nc3ccccc23)c1
IC50 (H9c2; [1]): 7.56 µM | IC50 (H9c2; [2]): 8.88 µM | IC50 (H9c2; [3]): 9.26 µM | IC50 (H9c2; [4]): 5.76 µM | IC50 (H9c2; [5]): 6.35 µM | IC50 (H9c2; [6]): > 79 µM | IC50 (H9c2; [7]): 1.7 µM | IC50 (H9c2; [8]): > 79 µM | IC50 (H9c2; [9]): > 79 µM | IC50 (HL-1; [1]): 1.96 µM | IC50 (HL-1; [2]): 1.26 µM | IC50 (HL-1; [3]): 1.4 µM | IC50 (HL-1; [4]): 2.32 µM | IC50 (HL-1; [5]): 2.86 µM | IC50 (HL-1; [10]): 4.24 µM | IC50 (HL-1; [6]): 2.55 µM | IC50 (HL-1; [7]): 3.43 µM | IC50 (HL-1; [8]): 4.67 µM | IC50 (HL-1; [9]): 6.3 µM

COc1ccc2c(c1OC)C(=O)N1c3ccccc3C(=O)N(Cc3ccncc3)C21 (stereo not drawn)
IC50 (H9c2; [1]): > 79 µM | IC50 (H9c2; [2]): > 79 µM | IC50 (H9c2; [3]): > 79 µM | IC50 (H9c2; [4]): > 79 µM | IC50 (H9c2; [5]): > 79 µM | IC50 (H9c2; [6]): > 79 µM | IC50 (H9c2; [7]): 55.3 µM | IC50 (H9c2; [8]): > 79 µM | IC50 (H9c2; [9]): > 79 µM | IC50 (HL-1; [1]): > 79 µM | IC50 (HL-1; [2]): > 79 µM | IC50 (HL-1; [3]): > 79 µM | IC50 (HL-1; [4]): > 79 µM | IC50 (HL-1; [5]): > 79 µM | IC50 (HL-1; [6]): > 79 µM | IC50 (HL-1; [7]): > 79 µM | IC50 (HL-1; [8]): > 79 µM | IC50 (HL-1; [9]): > 79 µM
